What all share (format): cell-based
The test system of experiment [1] is planktonic Candida cells. Description: Planktonic antifungal sensitivity of Candida spp. Particulars: all species tested. The method, then: (§1) Three clinical isolates of Candida were used in this study, including one albicans and two non-albicans species. C. albicans ATCC 14053 was obtained from the University Of Calgary, Department Of Biological Sciences. C. tropicalis 99916 and C. glabrata 14326 were obtained from the dialysate of patients undergoing continued ambulatory peritoneal dialysis (CAPD). Aspergillus fumigatus was also tested.
(§2) Biofilm susceptibility testing uses the pegged lid of the assembly, now containing biofilms formed after rocking in the tray for 24 hour. Each peg on the lid was gently washed once in 200 μl of phosphate buffered saline solution (PBSS) in a 96-well microtiter plate (Falcon). The pegged lid was then transferred to another 96 well microtiter plate containing 2 fold dilutions antifungal agent in 200 μl of RPMI 1640 (Sigma, St. Louis, Mo.) or RPMI 1640 containing 1% DMSO (see test drug section). After the pegs were exposed to the drugs for 24 hours, the pegged lid was removed and gently rinsed twice in saline. The pegged lid was then placed on a 96 well plate containing RPMI 1640 recovery medium. The pegs were sonicated for 5 minutes (Candida spp.) or 7 minutes (Aspergillus) in an ultrasonicator to dislodge adherent cells into the recovery medium. Aliquots of 20 μl of the recovery medium were spot plated on SDA (Candida spp) or Rose Bengal Agar (A. fumigatus) to obtain the MBEC. The assembly was also used to determine the minimum inhibitory concentration (MIC) and minimum fungicidal concentration (MFC). The turbidity of the wells that contained the antibiotic and planktonic cells which were shed from the biofilm was measured at 650 nm to obtain the MIC. A 20 μl sample from each well was also spot plated onto Sabouraud Dextrose agar (Candida spp) or Rose Bengal Agar (A. fumigatus) to obtain the MFC.
Minimum Inhibitory Concentrations (MIC) and Minimum Fungicidal Concentrations (MFC) were determined according to the guidelines of the National Committee for Clinical laboratory Standards (NCCLS). Briefly, Candida sp. were maintained on polystyrene spheres at −70° C. until plating. These organisms were streaked onto Sabouraud Dextrose agar (Microbiologie) plates 24 hours before test initiation. The 24 hour colonies were picked from the agar plates and placed in Muellar-Hinton Broth (MHB, Microbiologie) such that the turbidity matched a McFarland standard of 0.5. This was then diluted 1:10 in MHB to obtain a suspension of approximately 1×10^5 to 5×10^5 CFU/ml. A 5 μl volume of this suspension was added to wells containing 200 μl of antifungal agent serially diluted in RPMI 1640 media (Sigma) in a 96 well microtiter plate (Nunclon). A. fumigatus was maintained as a spore suspension at 4° C. until testing. The spore suspension (50 μl) was diluted into 250 ml of TSB, and 5 μl of this suspension was added to each test well containing dilution of antifungal agent as above.
The test wells were then incubated at 37° C. for 24 hours with the antifungal drugs. MICs for Candida were obtained after incubation by reading the turbidity at 650 nm on a microtiter plate reader (Softmax, VWR). A 20 μl aliquot of each well was also plated (SDA) and MFCs obtained from them after 24 hours incubation at 37° C. MFCs were determined for Aspergillus by plating 100 μl from each well onto Rose Bengal Agar, followed by spreading with a sterile glass spreader. The plated organisms were maintained at 25° C. for three days before colony enumeration.
Drugs tested. Itraconazole, Fluconazole, and Ketoconazole were obtained from Janssen Pharmaceuticals in Brussels, Belgium. Nystatin 5-Fluorocytosine, Griseofulvin, Amphotericin B and Polymyxin B were obtained from Sigma Chemical Co, St. Louis, Mo. 5-Fluorocytosine, polymyxin B sulphate and nystatin were dissolved in double-distilled water to a concentration of 10.24 mg/ml and diluted in the test wells through a range of 1024 μg/ml to 0.125 μg/ml in RPMI. […]

In experiment [2] the test system is Staphylococcus aureus (Staph) planktonic bacteria. Kind of experiment: MBEC assay, planktonic Staph isolates (Example 5). Particulars: number of resistant isolates; 12 isolates from device associated infections; exposed 24 hours.
For experiment [3], the system named is Pseudomonas aeruginosa (Ps) planktonic bacteria. Description: MBEC assay, planktonic Ps isolates (Example 5).
Experiment [4] has as its system planktonic P. aeruginosa. Kind of experiment: Pseudomonas aeruginosa biofilm assay kit, planktonic MIC reading of challenge plate (Example 8). Particulars: challenge 24 hours at 35° C.; breakpoint concentrations.
In experiment [5] the test system is planktonic Staphylococcus aureus. Kind of experiment: Staphylococcus test plate, planktonic forms (Example 9). The conditions noted are these: breakpoint concentrations, number in the label is the concentration tested.
Experiment [6] deals with Candida biofilms. Kind of experiment: Minimum biofilm eradication concentration assay, Candida spp. biofilms. The conditions noted are these: biofilm (sessile) Candida. The method, then: as §1
Biofilm formation and measurement of antimicrobial sensitivity of Candida and Aspergillus biofilms were performed using an assembly of the present invention. The device features a microtiter plate lid with 96 pegs or projections distributed on the lid. Each peg provided the surface for microorganism to adhere, colonize and form a uniform biofilm. The pegs fit precisely into the wells of a standard 96-well microtiter plate. The lid was used in conjunction with a base having special troughs for growing, washing, and incubating fungi. Colonies of Candida sp. were picked from 24 hour cultures on Sabouraud Dextrose agar (SDA) (BBL Microbiological Systems, Cockeysville, Md.) and placed into Mueller-Hinton Broth (MHB) (Difco Laboratories, Detroit Mich.) such that the suspension matched a McFarland standard of 1.0. This suspension was then diluted 1:30 in MHB, and 25 ml were pipetted into the trough chamber of the base. The closed assembly (lid with pegs positioned on the base) was placed on a Hoeffer Red Rocker (VWR, Scientific) set to rock the plates 3.5 cycles per minute in a 37° C. incubator. C. albicans and C. tropicalis were incubated aerobically, while C. glabrata was incubated in 10% CO2. It was determined in preliminary experiments that C. glabrata required 10% CO2 atmosphere for biofilms to form.
as §2
Drugs tested. Itraconazole, Fluconazole, and Ketoconazole were obtained from Janssen Pharmaceuticals in Brussels, Belgium. Nystatin 5-Fluorocytosine, Griseofulvin, Amphotericin B and Polymyxin B were obtained from Sigma Chemical Co, St. Louis, Mo. […]

Experiment [7] deals with Pseudomonas aeruginosa (Ps) biofilm. Description: MBEC assay, Ps biofilms (Example 5). Particulars: number of resistant isolates; 12 isolates from Cystic Fibrosis patients; exposed 24 hours.
Experiment [8] has as its system P. aeruginosa biofilm. Kind of experiment: Pseudomonas aeruginosa biofilm assay kit, biofilm MBEC reading of recovery plate (Example 8). The conditions noted are these: challenge 24 hours at 35° C.; recovery 20 to 24 hours; breakpoint concentrations.
[9] abbreviates: number of resistant isolates, 12 isolates from Cystic Fibrosis patients, exposed 24 hours.

From patent US20080318268A1, “Devices and Methods for the Selection of Agents with Efficacy Against Biofilm” (priority 2005, published 2008) come the findings set out here.

Entries after “also recorded” stand apart in the source; their conditions may differ. Where two headings read alike, the source gives them in different places.

Consider `Nc1nc(=O)[nH]cc1F` [5-fluorocytosine, 5-Fluorocytosine], for which the “effectiveness in killing planktonic Candida cells” value in experiment [1] is “effective”.

Regarding `O=C(O)c1cn(C2CC2)c2cc(N3CCNCC3)c(F)cc2c1=O` [CIPRO, ciprofloxacin], the “Staph resistance to individual antibiotics and antibiotic combinations, Planktonic” value (from here on “Staph resistance”) in experiment [2] turned out to be 10. For the same molecule, the “Ps resistance to individual antibiotics and antibiotic combinations, Planktonic” value (“Ps resistance … Planktonic” for short) in experiment [3] is reported as 4. Also, the “Number of P. aeruginosa isolates resistant to individual antibiotics and antibiotic combinations, Planktonic” value in experiment [4] was 4. In addition, in experiment [5], the “Number of Staphylococcus aureus isolates resistant to individual antibiotics and antibiotic combinations, Planktonic” value is 7.

For the molecule `COC1=CC(=O)C[C@@H](C)[C@]12Oc1c(Cl)c(OC)cc(OC)c1C2=O` [Griseofulvin], the “effectiveness in killing planktonic Candida cells” value in experiment [1] is on record as “ineffective”. In addition, the “effectiveness against Candida growing as a biofilm” value (“effectiveness … as a biofilm” for short) in experiment [6] is reported as “ineffective”.

Consider `C[C@H]1[C@H](NC(=O)/C(=N\OC(C)(C)C(=O)O)c2csc(N)n2)C(=O)N1S(=O)(=O)O` [AZTR, aztreonam], for which the “Ps resistance … Planktonic” value in experiment [3] was found to be 0. The “Number of P. aeruginosa isolates resistant to individual antibiotics and antibiotic combinations, Planktonic” value in experiment [4] came out at 0.

Consider `Cc1nnc(SCC2=C(C(=O)O)N3C(=O)[C@@H](NC(=O)Cn4cnnn4)[C@H]3SC2)s1` [CFZ, cefazolin], for which the “Staph resistance” value in experiment [2] was determined as 2. Further, the “Number of Staphylococcus aureus isolates resistant to individual antibiotics and antibiotic combinations, Planktonic” value in experiment [5] (listed as CFZ4) was determined as 4; in experiment [5] (listed as CFZ8) it was 6.

As to `NCC[C@H](O)C(=O)N[C@@H]1C[C@H](N)[C@@H](O[C@H]2O[C@H](CN)[C@@H](O)[C@H](O)[C@H]2O)[C@H](O)[C@H]1O[C@H]1O[C@H](CO)[C@@H](O)[C@H](N)[C@H]1O` [AK, amikacin], the “Ps resistance … Planktonic” value in experiment [3] (setting [9]) is 8. Further, the “Ps resistance to individual antibiotics and antibiotic combinations, Biofilm” value (“Ps resistance … Biofilm” for short) in experiment [7] came out at 11. Besides, the “Number of P. aeruginosa isolates resistant to individual antibiotics and antibiotic combinations, Planktonic” value in experiment [4] was determined as 8. Also, in experiment [8], the “Number of P. aeruginosa isolates resistant to individual antibiotics and antibiotic combinations, Biofilm” value was found to be 11.

On to `C[C@@H]1[C@H](O)[C@@H](C)/C=C/C=C/CC/C=C/C=C/C=C/C=C/C(O[C@H]2O[C@H](C)[C@@H](O)[C@H](N)[C@@H]2O)CC2O[C@](O)(CC(O)C(O)CCC(O)CC(O)CC(O)CC(=O)O[C@H]1C)CC(O)C2C(=O)O` (stereo partly shown) [nystatin, Nystatin], for which, in experiment [1], the “effectiveness in killing planktonic Candida cells” value is “effective”. Further, in experiment [6], the “effectiveness … as a biofilm” value is recorded as “effective; also recorded: most effective agents”.

As to `NC[C@H]1O[C@H](O[C@H]2[C@H](O)[C@@H](O[C@H]3O[C@H](CO)[C@@H](O)[C@H](N)[C@H]3O)[C@H](N)C[C@@H]2N)[C@H](N)C[C@@H]1O` [TB, tobramycin], the “Ps resistance … Planktonic” value in experiment [3] (setting [9]) is on record as 3. Also, in experiment [7], the “Ps resistance … Biofilm” value was 12. Also, the “Number of P. aeruginosa isolates resistant to individual antibiotics and antibiotic combinations, Planktonic” value in experiment [4] came to 3. Besides, the “Number of P. aeruginosa isolates resistant to individual antibiotics and antibiotic combinations, Biofilm” value in experiment [8] is reported as 12.

In the case of Colistin [CLO], the “Ps resistance … Planktonic” value in experiment [3] (setting [9]) was 2. Besides, in experiment [7], the “Ps resistance … Biofilm” value is given as 12. For the same molecule, in experiment [4], the “Number of P. aeruginosa isolates resistant to individual antibiotics and antibiotic combinations, Planktonic” value came to 2. The “Number of P. aeruginosa isolates resistant to individual antibiotics and antibiotic combinations, Biofilm” value in experiment [8] came to 12.

`CC(=O)N1CCN(c2ccc(OCC3COC(Cn4ccnc4)(c4ccc(Cl)cc4Cl)O3)cc2)CC1` (stereo not shown) [ketoconazole, Ketoconazole]: the “effectiveness in killing planktonic Candida cells” value in experiment [1] was “effective”.

Polymyxin B: the “effectiveness in killing planktonic Candida cells” value in experiment [1] is given as “ineffective”. In addition, in experiment [6], the “effectiveness … as a biofilm” value is “ineffective”.

For the molecule `C[C@@H](O)[C@H]1C(=O)N2C(C(=O)O)=C(SCCN=CN)C[C@H]12` [IMP, imipenem], the “Ps resistance … Planktonic” value in experiment [3] (setting [9]) is reported as 12. For the same molecule, the “Ps resistance … Biofilm” value in experiment [7] came out at 12. Moreover, the “Number of P. aeruginosa isolates resistant to individual antibiotics and antibiotic combinations, Planktonic” value in experiment [4] turned out to be 12. Moreover, in experiment [8], the “Number of P. aeruginosa isolates resistant to individual antibiotics and antibiotic combinations, Biofilm” value stood at 12.

Take `CCC[C@@H]1C[C@@H](C(=O)N[C@@H]([C@H]2O[C@H](SC)[C@H](O)[C@@H](O)[C@H]2O)[C@H](C)Cl)N(C)C1` [CLIN, clindamycin]: the “Staph resistance” value in experiment [2] amounted to 9. In addition, the “Number of Staphylococcus aureus isolates resistant to individual antibiotics and antibiotic combinations, Planktonic” value in experiment [5] (listed as CLI1) was found to be 8; in experiment [5] (listed as CLI4), 5.

As to `CC(C)(O/N=C(\C(=O)N[C@@H]1C(=O)N2C(C(=O)[O-])=C(C[n+]3ccccc3)CS[C@H]12)c1csc(N)n1)C(=O)O` [CFTZ, ceftazidime], the “Ps resistance … Planktonic” value in experiment [3] (setting [9]) came to 3. In addition, in experiment [7], the “Ps resistance … Biofilm” value stood at 12. In addition, the “Number of P. aeruginosa isolates resistant to individual antibiotics and antibiotic combinations, Planktonic” value in experiment [4] is 3. For the same molecule, the “Number of P. aeruginosa isolates resistant to individual antibiotics and antibiotic combinations, Biofilm” value in experiment [8] was 12.
